{
  "source": "paper PMC6214572",
  "about": "“Carboxypeptidase O is a lipid droplet-associated enzyme able to cleave both acidic and polar C-terminal amino acids” (PLoS ONE, 2018)",
  "biological_target": "T1, Carboxypeptidase O (CPO) (Homo sapiens, UniProt Q8IVL8, W297L)",
  "T1 construct": "full-length GPI-anchored enzyme without prodomain, (plasmid pcDNA-CPO in HEK293T); Triton X-100 cell lysate",
  "T1 sequence (Q8IVL8 21-352 W297L)": "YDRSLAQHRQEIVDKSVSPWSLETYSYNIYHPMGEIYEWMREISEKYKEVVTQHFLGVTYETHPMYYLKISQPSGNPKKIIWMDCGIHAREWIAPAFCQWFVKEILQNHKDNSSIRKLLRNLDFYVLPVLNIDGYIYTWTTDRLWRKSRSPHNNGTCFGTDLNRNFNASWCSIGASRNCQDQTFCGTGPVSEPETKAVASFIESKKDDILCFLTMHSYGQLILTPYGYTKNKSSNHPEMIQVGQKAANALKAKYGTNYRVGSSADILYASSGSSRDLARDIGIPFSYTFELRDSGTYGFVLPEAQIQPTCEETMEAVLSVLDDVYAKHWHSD",
  "experiment": "absorbance decrease at […] nm after […] min",
  "type": "biochemical",
  "conditions": "lysate of transfected HEK293T cells; 0.5 mM FA-EE, 37°C; inactive mutant",
  "data": [
    {"smiles": "O=C(O)CC[C@H](NC(=O)[C@H](CCC(=O)O)NC(=O)C=Cc1ccco1)C(=O)O", "note": "[FA-Glu-Glu]", "values": [
      {"measurement": "no enzymatic activity", "value": "The W297L CPO mutant exhibits no enzymatic activity, although fully expressed"}
    ]}
  ]
}
